Values of other authors as cited in paper PMC9627400 (ACS applied materials & interfaces, 2022).

Target: IL-6
Conditions: read-out: affinity; anti-IL-6 monoclonal antibody; cited from earlier work

siltuximab: an FDA-approved anti-IL-6 monoclonal antibody
Kd: 11.7 nM
